“Also recorded” adds a separate entry of the source.
Tests used:
Assay type in all cases: cell-based
hP2X7 [1] = molecular target: T1, hP2X7 (Homo sapiens, UniProt Q99572); experiment: YO-PRO 1 dye uptake assay, HEK-293 cells stably transfected with hP2X7; settings: for hP2X7 inhibition in YO-PRO 1 dye uptake, SAR / reduction of hP2X7 activity: analogues at 10 μM; for hP2X7 inhibition in YO-PRO 1 dye uptake, SAR: 1 mM ATP; for reduction of hP2X7 activity: YO-PRO 1, 1 mM ATP, 0.1% DMSO; for IC50: Table 1, table names no assay, values of 2 and 9 are from YO-PRO 1 dye uptake in hP2X7 HEK-293 cells, read-out: IC50
T1 construct: expressed in transfected cells; host or cells: HEK-293, stably transfected (gift of E. Adinolfi's group, Ferrara University)
T1 sequence (Q99572 1-595): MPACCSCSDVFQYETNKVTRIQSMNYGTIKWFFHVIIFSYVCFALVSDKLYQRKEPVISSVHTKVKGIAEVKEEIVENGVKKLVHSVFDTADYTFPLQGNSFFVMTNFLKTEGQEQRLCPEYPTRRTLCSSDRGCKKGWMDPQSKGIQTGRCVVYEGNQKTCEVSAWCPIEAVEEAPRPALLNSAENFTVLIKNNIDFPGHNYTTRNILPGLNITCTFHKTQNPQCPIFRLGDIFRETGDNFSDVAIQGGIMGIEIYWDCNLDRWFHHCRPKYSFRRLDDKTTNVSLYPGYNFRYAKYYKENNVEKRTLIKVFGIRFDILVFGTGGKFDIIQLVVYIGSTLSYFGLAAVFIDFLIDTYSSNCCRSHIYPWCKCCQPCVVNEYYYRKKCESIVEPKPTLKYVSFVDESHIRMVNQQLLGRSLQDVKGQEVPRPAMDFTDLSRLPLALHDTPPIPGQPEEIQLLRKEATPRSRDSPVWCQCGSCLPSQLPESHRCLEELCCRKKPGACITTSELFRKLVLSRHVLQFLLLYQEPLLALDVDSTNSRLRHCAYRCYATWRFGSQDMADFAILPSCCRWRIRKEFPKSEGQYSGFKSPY
Experimental: (§1) Astrocytoma 1321 N1 (established by Dr. Gaia Pasqualetto) and HEK-293 (kindly gifted by E. Adinolfi’s group, Ferrara University) both stably transfected with hP2X7, were used to assess the activity of the small molecules selected from the VS. Cells were maintained in DMEM:F12 (PanBiotech) supplemented with 10% FBS, 1% pen-strep, and 150 μg/mL G418 (PanBiotech).
(§2) Astrocytoma 1321 N1 cells (2–2.5 × 10^4 cells/well) and HEK-293 cells (4–5 × 10^4 cells/well) expressing hP2X7 were seeded in poly-L-lysine-coated 96-well plates (Sarstedt) 24 h before the experiment. YO-PRO 1 dye was prepared at 5 μM in extracellular solution with low divalent cations (ECS-LD) buffer (147 mM NaCl, 10 mM HEPES, 13 mM glucose, 0.2 mM CaCl2, 2 mM KCl, pH 7.4) and added to cells after washing them with Dulbecco’s phosphate- buffered saline (DPBS) (PanBiotech) and incubated for 20 min at 37 °C. ATP-induced dye uptake, mediated by hP2X7 activation, was monitored using a Clariostar plate reader (excitation: 485 nm; emission: 538 nm) for 30 cycles (75–150 s/cycle), after recording the baseline for five cycles. hP2X7 activation was quantified at cycle 10 by calculating the fluorescence intensity (FI) ratio (Δ(Fcycle 10–F cycle 1)/cycle time).
Compounds 2 and 9, identified as hits, were further evaluated for concentration-dependent inhibition (IC50) of hP2X7 activation in the YO-PRO 1 dye uptake assay using HEK-293 cells stably transfected with hP2X7 (unfortunately, at this point in the study, the stably transfected 1321N1 cells lost P2X7 expression, and we were unable to recover them from frozen aliquots), for which the ATP EC50 was determined to be approximately 1 mM (Supporting material Figure 4C). Seven concentrations (100 to 0.03 μM) were tested, but due to precipitation at 100 μM, the DMSO concentration was increased to 1%.
3 Inhibitory concentration response evaluation of compounds 2 and 9 and their groups highlighted for SAR. […] Compound activity was evaluated along a time of 20 min (75 s per cycle) after ATP addition (700 μM). The fluorescence intensity (FI) values of the first 10 cycles were considered for assessing their ability to inhibit hP2X7. The curves represent three biological replicates (n = 4 per replicate). Data were normalized by setting as 100% the FI recorded by hP2X7 HEK-293 cells incubated in 1% DMSO and stimulated by ATP, and as 0% the FI recorded by the same cells but treated with ECS-LD (assay buffer). (C) Highlighted areas of compound 2 considered for SAR study. R1 refers to the ethyl-benzyl group of the molecules, and R2 and R3 refer to the benzo-(1,3)-dioxol groups. (D) Highlighted areas of compound 9 considered for SAR study. We have defined the area highlighted in yellow and numbered as 1 as the “front” region of the molecule and the one colored in pink and named as 2 as the “back” region of the molecule. L highlights the urea and amide linkers of compounds 2 and 9, respectively.
(§3) 4 Evaluation of compound 2 and 9 analogue activity using YO-PRO 1 and MPR assays. The activity of compound 2 (A and B) and 9 (C and D) analogues was evaluated in YO-PRO 1 (A and C) and MPR (B and D) assays. The compounds were tested at 10 μM and preincubated for either 20 (YO-PRO 1) or 30 min (MPR). The baseline was recorded for 5 cycles before ATP treatment (1 mM). Fluorescence was recorded for 25 (YO-PRO 1) or 5 min (MPR). The data were normalized by setting as 100% for the fluorescence measured from hP2X7 HEK-293 cells incubated with vehicle (0.1% DMSO) and treated with 1 mM ATP and 0% for the fluorescence recorded by the cells not treated with ATP. The data shown correspond to three independent biological replicates (3 technical replicates per experiment; error bars represent the SEM from the mean values of each biological replicate (n = 3)). The statistical analysis was performed with one-way Anova using Dunnett’s function (P**** < 0.0001; P*** < 0.0003; P** < 0.002; P* < 0.02).

hP2X7 [2] = molecular target: T1, hP2X7; experiment: Membrane Potential Red (MPR) dye assay, HEK-293 cells stably transfected with hP2X7; settings: 10 μM, 1 mM ATP, hP2X7 HEK-293
Experimental: as §1
(§4) Cells were plated as described for the YO-PRO 1 dye uptake assay. MPR dye (Molecular Devices) was prepared following the manufacturer’s protocol and diluted 1:10 in ECS-LD buffer. After washing with DPBS, cells were incubated with the dye for 30 min at 37 °C. Fluorescence changes (excitation: 525 nm; emission: 560 nm) were recorded using a Clariostar plate reader during ATP-induced membrane depolarization. Baseline fluorescence was recorded for 5 cycles, and ATP was added via an automated injector (10 μL). Membrane depolarization was quantified as the ratio of the maximal fluorescence change over baseline intensity (Δ(F max–F0)/F0)).
as §3

hP2X7 [3] = molecular target: T1, hP2X7; experiment: Membrane Potential Red (MPR) dye assay, 1321 N1 cells stably transfected with hP2X7; settings: compound 10 μM, 700 μM ATP
hP2X7 [4] = molecular target: T1, hP2X7; experiment: YO-PRO 1 dye uptake assay, 1321 N1 cells stably transfected with hP2X7; settings: compound 30 μM, 700 μM ATP; for reduction of P2X7 activation: 0.3% DMSO
Experimental: as §1, §2
The P2X7 receptor, besides being a ligand-gated ion channel, forms large membrane pores following prolonged exposure to high concentrations of ATP, leading to apoptosis (Mackenzie et al. 2005). The YO-PRO 1 dye uptake assay, which measures dye influx through these pores, was selected as the primary screen. The fluorescence of YO-PRO 1 increases when it binds to DNA, enabling real-time monitoring of P2X7 activation (calculated as the rate of increase in fluorescence as YO-PRO 1 binds nuclear DNA).
The screening compounds were tested at 30 μM (0.3% DMSO) in 5 μM YO-PRO 1 dye diluted in freshly prepared ECS-LD buffer. Cells pretreated with the screening compounds were challenged with 700 μM ATP, and the fluorescence intensities were recorded. The negative control consisted of cells treated with 0.3% DMSO, while the positive control was 0.1 μM JNJ47965567, a selective P2X7 antagonist. ,
(§5) 2 Initial screening assays to identify hit compounds. (A) The compounds were screened at 30 μM in the YO-PRO 1 dye uptake using 1321 N1 cells stably transfected with hP2X7. Compound activity was evaluated along a time of 20 min (75 s per cycle) after ATP addition (700 μM). The fluorescence intensity (FI) values of the first 10 cycles were considered for assessing their ability to inhibit hP2X7. Compound responses were normalized to the fluorescent signal recorded on 0.3% DMSO cells treated with 700 μM ATP of each plate. […] (B) Compounds screened at 10 μM using MPR using 1321 N1 cells stably transfected with hP2X7. The compound activity was evaluated for 5 min after ATP addition (15 s per cycle). The fluorescence intensity recorded in the first cycles (before reaching a plateau response) was considered for assessing the small molecule’s ability to inhibit hP2X7. Compound responses were normalized to the fluorescence signal recorded on 0.1% DMSO cells treated with 700 μM ATP of each plate. […] One-way ANOVA and Dunnet test were used for statistical analysis (****P < 0.0001), (*P < 0.02).

hP2X7 [5] = molecular target: T1, hP2X7; experiment: Membrane Potential Red (MPR) dye assay, 1321 N1 cells stably transfected with hP2X7; settings: P2X7; compound 10 μM, 700 μM ATP
Experimental: as §1, §4
as §5, with “0.02). […]” for “0.02).”

CCOC(=O)c1ccccc1NC(=O)NC(Cc1ccc(OC)cc1)Cc1ccc2c(c1)OCO2 (stereo not shown) [Compound 2e]
hP2X7 inhibition in YO-PRO 1 dye uptake, SAR (hP2X7 [1]): diminished hP2X7 inhibition

O=C(Nc1ccc(F)cc1F)NC(Cc1ccc2c(c1)OCO2)Cc1ccc2c(c1)OCO2 [Compound 2c]
reduction of hP2X7 activity (hP2X7 [1]): 80%

COc1ccc(CCNC(=O)Nc2ccc3c(c2)OCO3)cc1OC [Compound 2j]
hP2X7 inhibition in YO-PRO 1 dye uptake, SAR (hP2X7 [1]): reduced activity compared to 2

O=C(COC(=O)c1cccnc1SCC(=O)Nc1ccc2c(c1)OCO2)NCc1ccco1 [Compound 9c]
hP2X7 inhibition in YO-PRO 1 dye uptake, SAR (hP2X7 [1]): compromised activity

COc1ccc(CC(Cc2ccc3c(c2)OCO3)NC(=O)Nc2ccc(C)c(F)c2)cc1 (stereo not shown) [Compound 2b]
hP2X7 inhibition in YO-PRO 1 dye uptake, SAR (hP2X7 [1]): diminished hP2X7 inhibition

COc1ccc(CC(Cc2ccc3c(c2)OCO3)NC(=O)c2ccc(NC(C)=O)cc2)cc1 (stereo not shown) [Compound 2k]
activity in MPR assay (hP2X7 [2]): diminished activity relative to the other structural analogues
hP2X7 inhibition in YO-PRO 1 dye uptake, SAR (hP2X7 [1]): still reduced receptor activation
reduction of hP2X7 activity (hP2X7 [1]): 80%

CC(C)NC(=O)NC(Cc1ccc2c(c1)OCO2)Cc1ccc2c(c1)OCO2 [Compound 2a]
hP2X7 inhibition in YO-PRO 1 dye uptake, SAR (hP2X7 [1]): reduced antagonist effects

CN(C)C(=O)Cn1cc(NC(=O)c2cnc(-c3ccc4c(c3)OCO4)s2)cn1 [Compound 9a]
hP2X7 inhibition in YO-PRO 1 dye uptake, SAR (hP2X7 [1]): reduced activity

CN(C)S(=O)(=O)c1cccc(COC(=O)c2cccnc2SCC(=O)Nc2ccc3c(c2)OCO3)c1 [Compound 9h]
hP2X7 inhibition in YO-PRO 1 dye uptake, SAR (hP2X7 [1]): activity comparable to that of 9; also recorded: enhanced target inhibition

CNC(=O)NC(Cc1ccc(F)cc1)Cc1ccc2c(c1)OCO2 (stereo not shown) [Compound 2d]
hP2X7 inhibition in YO-PRO 1 dye uptake, SAR (hP2X7 [1]): reduced antagonist effects

O=C(NCCc1ccc2c(c1)OCO2)NCCN1CCN(c2ccccc2)CC1 [Compound 2f]
hP2X7 inhibition in YO-PRO 1 dye uptake, SAR (hP2X7 [1]): reduced activity compared to 2

Cc1nn(-c2ccccc2)c(C)c1NC(=O)NCc1ccccc1Cn1cccn1 [Compound 7]
activity in MPR screen, hP2X7-induced membrane depolarization (hP2X7 [3]): did not also block
activity in YO-PRO 1 dye uptake screen (hP2X7 [4]): antagonist activity
reduction of P2X7 activation (hP2X7 [4]): at least 50%
IC50 (hP2X7 [1]): 4.23 µM

CCOc1ccc(NC(=O)NC(Cc2ccc(F)cc2)Cc2ccc3c(c2)OCO3)cc1 (stereo not shown) [Compound 2h]
reduction of hP2X7 activity (hP2X7 [1]): 80%

O=C(CSc1ncccc1C(=O)Nc1ccc(-n2cnnn2)cc1)Nc1ccc2c(c1)OCO2 [Compound 9d]
hP2X7 inhibition in YO-PRO 1 dye uptake, SAR (hP2X7 [1]): activity comparable to that of 9

O=C(NCc1ccc(Oc2ccc(F)cc2)cc1)c1ccccc1CN1C(=O)CNC1=O [Compound 4]
inhibition at 10 µM (hP2X7 [5]): ~90%
activity in MPR screen, hP2X7-induced membrane depolarization (hP2X7 [3]): statistically inhibited
activity in YO-PRO 1 dye uptake screen (hP2X7 [4]): no significant activity

COc1cccc(NC(=O)CSc2ccccc2C(=O)NCc2cn3ccccc3n2)c1 [Compound 6]
activity in MPR screen, hP2X7-induced membrane depolarization (hP2X7 [3]): did not also block
activity in YO-PRO 1 dye uptake screen (hP2X7 [4]): antagonist activity
reduction of P2X7 activation (hP2X7 [4]): at least 50%
IC50 (hP2X7 [1]): 20.9 µM

O=C(NCc1ccccc1)NC1(C(=O)NCc2ccccc2Cn2ccnc2)CCCC1 [Compound 8]
activity in MPR screen, hP2X7-induced membrane depolarization (hP2X7 [3]): did not also block
activity in YO-PRO 1 dye uptake screen (hP2X7 [4]): antagonist activity
reduction of P2X7 activation (hP2X7 [4]): at least 50%
IC50 (hP2X7 [1]): 4.07 µM

O=C(CSc1ncccc1C(=O)N1CCN(c2ccccc2F)CC1)Nc1ccc2c(c1)OCO2 [Compound 9e]
hP2X7 inhibition in YO-PRO 1 dye uptake, SAR (hP2X7 [1]): activity comparable to that of 9; also recorded: enhanced target inhibition

Reference: PMC12264943, “Identification of New Human P2X7 Antagonists Using Ligand- and Structure-Based Virtual Screening” (Journal of Chemical Information and Modeling, 2025)
